Experiments:
[1] = Binary supramolecular self-assembly systems of polymer and target: guest concentration over incubation time (Comparative Example 2); format: physicochemical; conditions: for Concentration of guest molecule in solution / Times that of the initial medium: 6 h
Method: Experiments were conducted according to the steps in Comparative Example 1, and quantitative analysis was carried out using the analytical method for each target to investigate the regulation ability […] stacking.

[2] = Guest molecule concentration after incubation in initial medium without polymer (Comparative Example 1); format: physicochemical; conditions: 37° C., pH 6.8 phosphate buffer
Outline: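 Dissolved guest content measured by HPLC of centrifuged supernatants (37° C., 13000 rpm, 5 min) sampled at 0.5 h, 3 h and 6 h. Incubation was polymer-free at 37° C.±0.5° C. in buffers of pH 2.0-7.4; nominal loading was set by maximum clinical dose.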

[3] = cited from earlier work
[4] = Binary (carrier), ternary and quaternary supramolecular self-assembly systems of polymer, carrier building block and target: guest concentration over incubation time (Examples 1-56); format: physicochemical; conditions: 6 h
Outline: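 Targets were incubated at 37 °C in pH 2.0–7.4 buffers with 0.5% polymer alone or with carrier building blocks, after 0.5 h sonication for ternary systems, and shaken at 200 rpm. Samples at 0.5–6 h were centrifuged and diluted ≥10-fold, and dissolved target was quantified by HPLC; surfactant was added if needed.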

[5] = binary system with 0.5% polymer 101, incubation 0.5 h
[6] = binary system with 0.5% polymer 101, incubation 3 h
[7] = binary system with 0.5% polymer 101, incubation 6 h
[8] = binary system with 0.5% polymer 102, incubation 0.5 h
[9] = binary system with 0.5% polymer 102, incubation 3 h
[10] = binary system with 0.5% polymer 102, incubation 6 h
[11] = binary system with 0.5% polymer 103, incubation 0.5 h
[12] = binary system with 0.5% polymer 103, incubation 3 h
[13] = binary system with 0.5% polymer 103, incubation 6 h
[14] = binary system with 0.5% polymer 106, incubation 0.5 h
[15] = binary system with 0.5% polymer 106, incubation 3 h
[16] = binary system with 0.5% polymer 106, incubation 6 h
[17] = binary system with 0.5% polymer 107, incubation 0.5 h
[18] = binary system with 0.5% polymer 107, incubation 3 h
[19] = binary system with 0.5% polymer 107, incubation 6 h

Structure (SMILES) | Concentration of the target in the solution measured after different incubation time [1, 5] [ng/mL] | Concentration of the target in the solution measured after different incubation time [1, 6] [ng/mL] | Concentration of the target in the solution measured after different incubation time [1, 7] [ng/mL] | Concentration of the target in the solution measured after different incubation time [1, 8] [ng/mL] | Concentration of the target in the solution measured after different incubation time [1, 9] [ng/mL] | Concentration of the target in the solution measured after different incubation time [1, 10] [ng/mL] | Concentration of the target in the solution measured after different incubation time [1, 11] [ng/mL] | Concentration of the target in the solution measured after different incubation time [1, 12] [ng/mL] | Concentration of the target in the solution measured after different incubation time [1, 13] [ng/mL] | Concentration of the target in the solution measured after different incubation time [1, 14] [ng/mL] | Concentration of the target in the solution measured after different incubation time [1, 15] [ng/mL] | Concentration of the target in the solution measured after different incubation time [1, 16] [ng/mL] | Concentration of the target in the solution measured after different incubation time [1, 17] [ng/mL] | Concentration of the target in the solution measured after different incubation time [1, 18] [ng/mL] | Concentration of the target in the solution measured after different incubation time [1, 19] [ng/mL] | Concentration of guest molecule measured after different incubated time ([2]; 0.5 h) [ng/mL] | Concentration of guest molecule measured after different incubated time ([2]; 3 h) [ng/mL] | Concentration of guest molecule measured after different incubated time ([2]; 6 h) [ng/mL] | also measured
CCCNS(=O)(=O)Nc1ncnc(OCCOc2ncc(Br)cn2)c1-c1ccc(Br)cc1 [Macitentan] | 56000 | 75200 | 46200 | 56500 | 71500 | 89500 | 34300 | 28500 | 27700 | 41500 | 35600 | 32500 | 46500 | 43500 | 39300 | 35000 | 33800 | 28000 | Concentration of the target in the solution measured after different incubation time ([1]; binary system with 0.5% polymer 110, incubation 0.5 h): 28700 ng/mL; Concentration of the target in the solution measured after different incubation time ([1]; binary system with 0.5% polymer 110, incubation 3 h): 34700 ng/mL; Concentration of the target in the solution measured after different incubation time ([1]; binary system with 0.5% polymer 110, incubation 6 h): 33500 ng/mL; Concentration of guest molecule in solution ([1]; binary: 0.5% 101): 46200 ng/mL; Times that of the initial medium ([1]; binary: 0.5% 101): 4.3 times; Concentration of guest molecule in solution ([1]; binary: 0.5% 102H): 89500 ng/mL; Times that of the initial medium ([1]; binary: 0.5% 102H): 10.4 times; LogP [3]: LogP 3.55; Concentration of guest molecule in solution ([4]; Comparative Example 4, quaternary: 0.25% 201 + 0.25% 305): 59500 ng/mL; Concentration of guest molecule in solution ([4]; Comparative Example 4, quaternary: 0.25% 201 + 0.25% 309): 29200 ng/mL; Concentration of guest molecule in solution ([4]; quaternary: 0.25% 201 (102H+101) + 0.25% 307): 362500 ng/mL; Concentration of guest molecule in solution ([4]; quaternary: 0.25% 201 (102H+101) + 0.25% 308): 516000 ng/mL; Concentration of guest molecule in solution ([4]; quaternary: 0.25% 201 (102H+101) + 0.25% 313): 474600 ng/mL; Concentration of guest molecule in solution ([4]; quaternary: 0.25% 201 (102H+101) + 0.25% 320): 562400 ng/mL; Concentration of guest molecule in solution ([4]; quaternary: 0.25% 201 (102H+101) + 0.25% 321): 596300 ng/mL
COc1cc2nccc(Oc3ccc(NC(=O)NC4CC4)c(Cl)c3)c2cc1C(N)=O [Lenvatinib] | 45500 | 29300 | 28600 | 76800 | 26200 | 27800 | 12900 | 11300 | 7600 | 7300 | 7900 | 6500 | 68200 | 9700 | 6100 | 7600 | 1700 | 900 | Concentration of the target in the solution measured after different incubation time ([1]; binary system with 0.5% polymer 104, incubation 0.5 h): 37800 ng/mL; Concentration of the target in the solution measured after different incubation time ([1]; binary system with 0.5% polymer 104, incubation 3 h): 42700 ng/mL; Concentration of the target in the solution measured after different incubation time ([1]; binary system with 0.5% polymer 104, incubation 6 h): 67500 ng/mL; Concentration of guest molecule in solution ([1]; binary: 102H, % not stated at the place): 59500 ng/mL; Concentration of guest molecule in solution ([1]; binary: 104, % not stated at the place): 47600 ng/mL; LogD7.4 or Log P [3]: 2.52; Concentration of guest molecule in solution ([4]; quaternary: 0.25% 205 (102H+104) + 310): 116400 ng/mL; Concentration of guest molecule in solution ([4]; quaternary: 0.25% 205 (102H+104) + 313, carrier % not stated): 112100 ng/mL
